Measurements: patent EP2487185A1, “Hexapeptide with improved activity in the repair of cellular DNA of dermal cells” (Clinuvel Pharmaceuticals Limited, priority 2011, dated 2012)
Non-standard residues stand in square brackets, D forms with d. Nle = CCCC[C@H](N)C(=O)O

Experiments:
Format in all cases: cell-based, human
melanocyte strain 103c = test: UV-induced apoptosis by Annexin Va staining, flow cytometry; settings: 1 nM, 4 days prior and 1 day following 105 mJ/cm^2 UV
Method: With reference to Fig. 12 and 13, melanocytes were maintained for the duration of the experiment in medium lacking bovine pituitary extract (BPE) to determine the survival effect of α-MSH or its analogs in the absence of the anti-apoptotic effect of TPA. Melanocytes were treated with 0, 1 nM α-MSH, 1 µM Forskolin, or 1 nM NDP-MSH or CUV9900 for 4 days prior to, and 24 h after exposure to a dose of 105 mJ/cm^2 UV, then stained for Annexin Va staining. The data are represented as percent increase above control, with triplicate dishes included in each group.
Comparison of the effect of CUV9900, NDP-MSH and MSH on the UV-induced apoptosis were made in the melanocyte strains 103c and melanocyte strain 1513c of Figs. 12 and 13, respectively. Both strains were treated with 1 nM CUV9900, NDP and MSH, respectively for 4 days prior and 1 day following irradiation. Floating as well as attached cells were harvested and stained for Annexin V, and analyzed by flow cytometry.

melanocyte strain 1505b = test: Tyrosinase activity as a measure of stability / residual effect; settings: for Tyrosinase activity, column 1 / Tyrosinase activity, column 2 / Tyrosinase activity, column 3 / Tyrosinase activity, Mean: STRAIN 1505b; for Tyrosinase activity, column 1: Table 6 (Fig. 8), after 3 days of treatment; for Tyrosinase activity, column 1 / Tyrosinase activity, column 2 / Tyrosinase activity, column 3: 1nM; for Tyrosinase activity, column 2 / Tyrosinase activity, column 3 / Tyrosinase activity, Mean: Table 6; for Tyrosinase activity, column 2: column 2, not defined; for Tyrosinase activity, column 3: column 3, apparently 4 days after peptide removal; for Tyrosinase activity, Mean: mean of columns 1-3
Method: To determine the residual effect of CUV9900, as compared to NDP-MSH and α-MSH, on tyrosinase activity, melanocytes were treated with either CUV9900 or NDP-MSH at the concentrations previously described for a total of 3 days. Tyrosinase activity was measured at the end of the 3 days of treatment, and 2 and 4 days after maintenance of the melanocytes in the complete absence of any treatment.
With continued reference to Figs. 7, 8 and 9, to determine the stability of CUV9900 versus that of NDP-MSH and α-MSH, melanocytes were treated with 1 nM of each peptide, namely with CUV9900, NDP-MSH and α-MSH, for a total of 6 days, or with 1 nM peptides that were incubated for 5 hours at 37 °C prior to addition to the cultures, every other day, for a total of 6 days. Tyrosinase activity was measured at the end of treatment. In the experiments, cell number represents the mean percent of control of 3 determinations/ group ±SE, and tyrosinase activity data represent the mean percent of control of 6 determinations ±S.E. It should be noted that for the sake of reproducibility the experiment of strain 1513c of Fig. 9 was performed once more 6 months later than the experiment of Fig. 7.
Melanocytes were treated for 3 days with the designated concentrations of CUV9900, NDP-MSH, or MSH, then maintained in absence of peptides for 4 days. Tyrosinase activity was determined 3 days after treatment.

melanocyte strain 1513c = test: as above; settings: for Tyrosinase activity, column 3: 4 days after peptide removal
Method: To determine the residual effect of CUV9900, as compared to NDP-MSH and α-MSH, on tyrosinase activity, melanocytes were treated with either CUV9900 or NDP-MSH at the concentrations previously described for a total of 3 days. Tyrosinase activity was measured at the end of the 3 days of treatment, and 2 and 4 days after maintenance of the melanocytes in the complete absence of any treatment. With continued reference to Figs. 7, 8 and 9, to determine the stability of CUV9900 versus that of NDP-MSH and α-MSH, melanocytes were treated with 1 nM of each peptide, namely with CUV9900, NDP-MSH and α-MSH, for a total of 6 days, or with 1 nM peptides that were incubated for 5 hours at 37 °C prior to addition to the cultures, every other day, for a total of 6 days. Tyrosinase activity was measured at the end of treatment. In the experiments, cell number represents the mean percent of control of 3 determinations/ group ±SE, and tyrosinase activity data represent the mean percent of control of 6 determinations ±S.E. It should be noted that for the sake of reproducibility the experiment of strain 1513c of Fig. 9 was performed once more 6 months later than the experiment of Fig. 7. […] Melanocytes were treated for 3 days with the designated concentrations of CUV9900, NDP-MSH, or MSH, then maintained in absence of peptides for 4 days. Tyrosinase activity was determined 3 days after treatment. Comparison of stability of CUV9900, NDP-MSH and MSH was compared in 1513c, as shown in Fig. 7; the strain was treated for 6 days with 1 nM CUV9900, NDP-MSH or MSH with fresh medium and peptide replenished every 2 days. Melanocytes were treated according to the same experiment protocol but each peptide was incubated for 5-7 hours at 37 degrees Celsius. […] The assessment of tyrosinase was statistically different from control, as determined by ANOVA (p=<0.05).

melanocytes strain 1513c = test: cAMP levels (125I radioimmunoassay), dose-response; settings: 45 min, 0.1 mM IBMX; for maximal level of cAMP: at 10 nM
Method: Dose-response experiments were carried out on three melanocytic strains, namely strains 1513c, 1505b and 105c melanocytes were treated with 1 pM-10 nM CUV9900 or NDP-MSH, or with 0.1-10 nM MSH for 45 minutes in the presence of 0.1 mM isobutyl methylxanthine (IBMX). The results obtained from strain 1513c are shown in Fig. 3, the results obtained from strain 1505b are shown in Fig. 5a and the results obtained from strain 105c are shown in Fig. 5b. The strains 1505b and 1513c were obtained from the same human adult while the strain 105c was obtained from another human adult. Cyclic AMP is the second messenger for the melanocortin-1 receptor, and assessment is usually performed indicating cellular activity reflective of melanogenesis. Cyclic AMP levels were determined using ^125I-labeled radioimmunoassay kit (Perkin Elmer, Waltham, MA), in human melanocytes that were treated with 0 (control), 0.1-10.0 nM α-MSH, or 0.001-10 nM NDP-MSH or 0.001-10.0 nM CUV 9900 for 45 min. in the presence of 0.1 mM IBMX, a phosphodiesterase inhibitor to prevent cAMP degradation. Triplicate wells were included in each group, and duplicate samples from each well were assayed for cAMP levels. Each data point is the mean percent of control of 6 determinations/group ±S.E.

[1] = STRAIN 1513c [1], Table 4 (Fig. 7), 1nM, after 3 days of treatment
[2] = STRAIN 1513c [1], Table 4, 1nM, column 2, apparently 2 days after removal of peptides
[3] = STRAIN 1513c [2], Table 5 (Fig. 9), 1 nM, 6 days, fresh peptide
[4] = STRAIN 1513c [2], Table 5, 1 nM, 6 days, peptide incubated 5-7 hours at 37 degrees Celsius
[5] = over the 2 experiments in strain 1513c

Row | Tyrosinase activity, column 1 (melanocyte strain 1505b) | Tyrosinase activity, column 2 (melanocyte strain 1505b) | Tyrosinase activity, column 3 (melanocyte strain 1505b) | Tyrosinase activity, Mean (melanocyte strain 1505b) | effect on tyrosinase activity after 3 days of treatment (melanocyte strain 1505b; strain 1505b, 0.1 nM CUV9900, 1 nM MSH) | residual effects 4 days after peptide removal, comparison with MSH (melanocyte strain 1505b; strain 1505b, 0.1 nM CUV9900 vs 1 nM MSH) | Tyrosinase activity, column 1 (melanocyte strain 1513c; [1]) | Tyrosinase activity, column 3 (melanocyte strain 1513c; STRAIN 1513c [1], Table 4, 1nM) | Tyrosinase activity, column 2 (melanocyte strain 1513c; [2]) | Tyrosinase activity, column 1 (melanocyte strain 1513c; [3]) | Tyrosinase activity, column 2 (melanocyte strain 1513c; [4]) | Tyrosinase activity, Mean (melanocyte strain 1513c; STRAIN 1513c [2], Table 5) | superior stability over MSH (tyrosinase activity) (melanocyte strain 1513c; [5]) [%] | superior stability over NDP (tyrosinase activity) (melanocyte strain 1513c; [5]) [%] | Substance | anti-apoptotic effect (UV-induced apoptosis, Annexin V) (melanocyte strain 103c) | effect of incubation of the peptide on stimulation of tyrosinase activity (melanocyte strain 1513c; strain 1513c, 1 nM peptide incubated 5-7 hours at 37 degrees Celsius) | cAMP, potency comparison (melanocytes strain 1513c; at 0.1 nM) | maximal level of cAMP (melanocytes strain 1513c)
1 | 259 % of control | 199 % of control | 126 % of control | 194.7 % of control | 259 % of control | equal | 284 % of control | 160 % of control | 203 % of control | 385.1 % of control | 388.7 % of control | 386.9 % of control | 55.3 | 15.7 | Ac-Nle-Glu His-D-Phe-Arg-Trp-NH2 (Ac-[Nle]EH[dF]RW-NH2; SMILES CCCC[C@H](NC(C)=O)C(=O)N[C@@H](CCC(=O)O)C(=O)N[C@@H](Cc1c[nH]cn1)C(=O)N[C@H](Cc1ccccc1)C(=O)N[C@@H](CCCNC(=N)N)C(=O)N[C@@H](Cc1c[nH]c2ccccc12)C(N)=O) [CUV9900, hexapeptide, alpha-MSH analogue] | equal anti-apoptotic effect than NDP-MSH | no effect on its ability to stimulate tyrosinase activity | more potent than NDP-MSH | higher maximal level of cAMP than MSH
2 | 175 % of control | 155 % of control | 115 % of control | 148.3 % of control |  |  | 302 % of control | 164 % of control | 203 % of control | 329.9 % of control | 229.2 % of control | 279.6 % of control |  |  | Ac-Ser-Tyr-Ser-Nle-Glu-His-D-Phe-Arg-Trp-Gly-Lys-Pro-Val-NH2 [NDP-MSH, reference compound] |  |  |  | higher maximal level of cAMP than MSH
